Assay in all cases: SelectScreen kinase assay
Assay [1] addresses T1, CDKL5 (Homo sapiens, UniProt O76039).
T1 sequence (O76039 1-960): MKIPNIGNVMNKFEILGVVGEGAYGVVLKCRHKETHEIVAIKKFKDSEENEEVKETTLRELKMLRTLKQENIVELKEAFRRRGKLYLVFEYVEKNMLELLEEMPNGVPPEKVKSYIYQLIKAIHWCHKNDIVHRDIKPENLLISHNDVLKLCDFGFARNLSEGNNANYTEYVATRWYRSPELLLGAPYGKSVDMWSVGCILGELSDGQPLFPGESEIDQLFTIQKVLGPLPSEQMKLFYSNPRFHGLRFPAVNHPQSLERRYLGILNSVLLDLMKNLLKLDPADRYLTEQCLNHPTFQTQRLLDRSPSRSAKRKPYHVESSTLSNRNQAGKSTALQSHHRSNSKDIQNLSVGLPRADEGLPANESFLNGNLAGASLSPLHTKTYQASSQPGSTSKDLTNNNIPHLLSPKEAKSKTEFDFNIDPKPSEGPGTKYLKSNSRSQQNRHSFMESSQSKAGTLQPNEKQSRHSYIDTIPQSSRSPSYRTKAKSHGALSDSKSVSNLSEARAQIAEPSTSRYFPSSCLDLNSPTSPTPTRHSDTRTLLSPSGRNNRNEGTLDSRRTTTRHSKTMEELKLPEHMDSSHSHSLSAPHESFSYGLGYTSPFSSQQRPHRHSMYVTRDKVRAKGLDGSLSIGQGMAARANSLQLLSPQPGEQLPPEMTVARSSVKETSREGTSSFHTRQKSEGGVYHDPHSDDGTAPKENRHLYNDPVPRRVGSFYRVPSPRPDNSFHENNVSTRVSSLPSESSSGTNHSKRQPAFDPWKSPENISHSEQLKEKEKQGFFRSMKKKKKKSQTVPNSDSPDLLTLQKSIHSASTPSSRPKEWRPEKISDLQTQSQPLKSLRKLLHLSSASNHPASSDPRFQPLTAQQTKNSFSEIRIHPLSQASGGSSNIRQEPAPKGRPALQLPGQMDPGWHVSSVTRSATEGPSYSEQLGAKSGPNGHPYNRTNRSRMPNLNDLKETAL
Protocol: (§1) Selectivity profiling assays were performed by the Invitrogen SelectScreen™ Services. […] The concentration of ATP was selected to be equal to the KM, unless indicated otherwise.

For assay [2], the target named is MARK2 (Homo sapiens, UniProt Q7KZI7).
Sequence of MARK2 (Q7KZI7 whole entry): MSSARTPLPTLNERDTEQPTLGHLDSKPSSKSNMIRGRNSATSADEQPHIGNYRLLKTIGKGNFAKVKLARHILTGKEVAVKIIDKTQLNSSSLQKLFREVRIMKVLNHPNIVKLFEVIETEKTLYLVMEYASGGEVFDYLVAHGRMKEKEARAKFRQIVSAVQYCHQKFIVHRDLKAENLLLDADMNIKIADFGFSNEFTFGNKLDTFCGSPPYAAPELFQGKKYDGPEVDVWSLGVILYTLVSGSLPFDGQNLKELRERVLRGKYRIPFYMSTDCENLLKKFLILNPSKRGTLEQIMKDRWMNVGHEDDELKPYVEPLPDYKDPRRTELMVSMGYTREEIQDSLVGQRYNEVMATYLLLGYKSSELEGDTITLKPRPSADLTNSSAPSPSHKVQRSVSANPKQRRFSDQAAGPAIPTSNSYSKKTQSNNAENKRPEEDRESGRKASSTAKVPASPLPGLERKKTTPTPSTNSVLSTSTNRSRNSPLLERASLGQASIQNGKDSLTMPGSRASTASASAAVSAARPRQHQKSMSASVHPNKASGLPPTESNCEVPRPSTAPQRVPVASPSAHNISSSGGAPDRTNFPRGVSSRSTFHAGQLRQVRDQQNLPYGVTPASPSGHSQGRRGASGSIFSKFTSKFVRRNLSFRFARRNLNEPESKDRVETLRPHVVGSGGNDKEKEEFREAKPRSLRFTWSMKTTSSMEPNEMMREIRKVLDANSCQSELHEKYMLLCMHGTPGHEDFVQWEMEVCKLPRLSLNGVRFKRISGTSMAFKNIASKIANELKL
Protocol: as §1
Assay [3] addresses MYLK2 (skMLCK) (Homo sapiens, UniProt Q9H1R3). As to conditions: for Inhibition at 1 µM (%): MYLK2 (skMLCK), ZLYTE, ATP Km app.
Protocol: as §1
In assay [4] the target is PIM2 (Homo sapiens, UniProt Q9P1W9).
Sequence of PIM2 (Q9P1W9 whole entry): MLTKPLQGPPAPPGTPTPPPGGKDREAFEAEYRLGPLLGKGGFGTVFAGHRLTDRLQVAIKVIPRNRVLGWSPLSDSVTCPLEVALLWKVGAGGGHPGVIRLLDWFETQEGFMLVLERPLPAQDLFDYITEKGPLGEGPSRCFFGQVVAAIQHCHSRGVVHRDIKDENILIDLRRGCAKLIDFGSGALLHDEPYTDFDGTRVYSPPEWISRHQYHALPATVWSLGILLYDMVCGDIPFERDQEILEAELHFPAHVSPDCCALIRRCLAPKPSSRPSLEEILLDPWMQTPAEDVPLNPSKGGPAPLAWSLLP
Protocol: as §1
For assay [5], the target named is PIP5K1A (Homo sapiens, UniProt Q99755).
Sequence of PIP5K1A (Q99755 whole entry): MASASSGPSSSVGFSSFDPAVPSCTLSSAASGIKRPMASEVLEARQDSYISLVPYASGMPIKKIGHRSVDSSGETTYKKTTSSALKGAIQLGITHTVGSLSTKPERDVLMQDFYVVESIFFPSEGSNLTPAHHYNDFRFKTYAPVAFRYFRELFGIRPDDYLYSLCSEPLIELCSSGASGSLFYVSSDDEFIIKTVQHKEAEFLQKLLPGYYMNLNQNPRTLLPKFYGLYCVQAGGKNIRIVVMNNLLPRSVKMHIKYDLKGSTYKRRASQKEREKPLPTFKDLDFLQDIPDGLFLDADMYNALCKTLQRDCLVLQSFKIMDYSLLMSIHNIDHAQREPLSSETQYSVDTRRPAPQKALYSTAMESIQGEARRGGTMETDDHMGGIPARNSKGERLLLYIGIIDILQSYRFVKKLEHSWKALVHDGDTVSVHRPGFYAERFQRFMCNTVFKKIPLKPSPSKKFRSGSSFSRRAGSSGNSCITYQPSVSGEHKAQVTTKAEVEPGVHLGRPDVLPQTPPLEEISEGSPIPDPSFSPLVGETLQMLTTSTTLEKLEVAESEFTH
Protocol: as §1
The target in assay [6] is RET (Homo sapiens, UniProt P07949).
Protocol: as §1
For assay [7], the target named is T2, ULK2 (Homo sapiens, UniProt Q8IYT8).
T2 sequence (Q8IYT8 1-1036): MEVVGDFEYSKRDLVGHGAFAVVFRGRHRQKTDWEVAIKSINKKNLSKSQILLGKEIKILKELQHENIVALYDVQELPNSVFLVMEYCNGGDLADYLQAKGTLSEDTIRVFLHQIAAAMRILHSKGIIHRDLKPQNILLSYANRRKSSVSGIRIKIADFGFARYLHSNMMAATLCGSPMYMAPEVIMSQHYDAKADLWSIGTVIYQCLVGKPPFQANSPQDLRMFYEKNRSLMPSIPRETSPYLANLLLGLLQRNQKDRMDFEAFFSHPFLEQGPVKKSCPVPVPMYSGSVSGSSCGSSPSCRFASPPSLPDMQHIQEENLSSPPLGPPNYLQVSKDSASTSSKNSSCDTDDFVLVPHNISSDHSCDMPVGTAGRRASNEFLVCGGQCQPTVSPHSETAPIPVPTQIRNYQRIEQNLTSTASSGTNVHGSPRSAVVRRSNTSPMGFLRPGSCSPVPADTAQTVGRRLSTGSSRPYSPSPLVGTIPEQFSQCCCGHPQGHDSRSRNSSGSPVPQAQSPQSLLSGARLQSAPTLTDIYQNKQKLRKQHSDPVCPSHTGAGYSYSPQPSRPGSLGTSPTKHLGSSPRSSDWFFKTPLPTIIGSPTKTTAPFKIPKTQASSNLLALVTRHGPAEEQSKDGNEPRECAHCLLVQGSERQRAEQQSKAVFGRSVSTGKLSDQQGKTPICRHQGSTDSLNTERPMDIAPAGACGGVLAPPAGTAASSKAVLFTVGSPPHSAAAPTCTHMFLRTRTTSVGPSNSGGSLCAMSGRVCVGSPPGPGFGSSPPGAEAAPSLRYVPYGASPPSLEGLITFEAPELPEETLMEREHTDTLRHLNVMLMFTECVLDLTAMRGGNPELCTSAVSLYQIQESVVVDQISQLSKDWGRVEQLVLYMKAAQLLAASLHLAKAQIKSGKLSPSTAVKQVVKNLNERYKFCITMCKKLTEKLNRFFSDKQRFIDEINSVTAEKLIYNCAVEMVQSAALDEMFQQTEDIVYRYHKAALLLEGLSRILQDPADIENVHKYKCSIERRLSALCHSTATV
Protocol: as §1

In assay [8] the target is WNK3 (Homo sapiens, UniProt Q9BYP7).
Sequence of WNK3 (Q9BYP7 whole entry): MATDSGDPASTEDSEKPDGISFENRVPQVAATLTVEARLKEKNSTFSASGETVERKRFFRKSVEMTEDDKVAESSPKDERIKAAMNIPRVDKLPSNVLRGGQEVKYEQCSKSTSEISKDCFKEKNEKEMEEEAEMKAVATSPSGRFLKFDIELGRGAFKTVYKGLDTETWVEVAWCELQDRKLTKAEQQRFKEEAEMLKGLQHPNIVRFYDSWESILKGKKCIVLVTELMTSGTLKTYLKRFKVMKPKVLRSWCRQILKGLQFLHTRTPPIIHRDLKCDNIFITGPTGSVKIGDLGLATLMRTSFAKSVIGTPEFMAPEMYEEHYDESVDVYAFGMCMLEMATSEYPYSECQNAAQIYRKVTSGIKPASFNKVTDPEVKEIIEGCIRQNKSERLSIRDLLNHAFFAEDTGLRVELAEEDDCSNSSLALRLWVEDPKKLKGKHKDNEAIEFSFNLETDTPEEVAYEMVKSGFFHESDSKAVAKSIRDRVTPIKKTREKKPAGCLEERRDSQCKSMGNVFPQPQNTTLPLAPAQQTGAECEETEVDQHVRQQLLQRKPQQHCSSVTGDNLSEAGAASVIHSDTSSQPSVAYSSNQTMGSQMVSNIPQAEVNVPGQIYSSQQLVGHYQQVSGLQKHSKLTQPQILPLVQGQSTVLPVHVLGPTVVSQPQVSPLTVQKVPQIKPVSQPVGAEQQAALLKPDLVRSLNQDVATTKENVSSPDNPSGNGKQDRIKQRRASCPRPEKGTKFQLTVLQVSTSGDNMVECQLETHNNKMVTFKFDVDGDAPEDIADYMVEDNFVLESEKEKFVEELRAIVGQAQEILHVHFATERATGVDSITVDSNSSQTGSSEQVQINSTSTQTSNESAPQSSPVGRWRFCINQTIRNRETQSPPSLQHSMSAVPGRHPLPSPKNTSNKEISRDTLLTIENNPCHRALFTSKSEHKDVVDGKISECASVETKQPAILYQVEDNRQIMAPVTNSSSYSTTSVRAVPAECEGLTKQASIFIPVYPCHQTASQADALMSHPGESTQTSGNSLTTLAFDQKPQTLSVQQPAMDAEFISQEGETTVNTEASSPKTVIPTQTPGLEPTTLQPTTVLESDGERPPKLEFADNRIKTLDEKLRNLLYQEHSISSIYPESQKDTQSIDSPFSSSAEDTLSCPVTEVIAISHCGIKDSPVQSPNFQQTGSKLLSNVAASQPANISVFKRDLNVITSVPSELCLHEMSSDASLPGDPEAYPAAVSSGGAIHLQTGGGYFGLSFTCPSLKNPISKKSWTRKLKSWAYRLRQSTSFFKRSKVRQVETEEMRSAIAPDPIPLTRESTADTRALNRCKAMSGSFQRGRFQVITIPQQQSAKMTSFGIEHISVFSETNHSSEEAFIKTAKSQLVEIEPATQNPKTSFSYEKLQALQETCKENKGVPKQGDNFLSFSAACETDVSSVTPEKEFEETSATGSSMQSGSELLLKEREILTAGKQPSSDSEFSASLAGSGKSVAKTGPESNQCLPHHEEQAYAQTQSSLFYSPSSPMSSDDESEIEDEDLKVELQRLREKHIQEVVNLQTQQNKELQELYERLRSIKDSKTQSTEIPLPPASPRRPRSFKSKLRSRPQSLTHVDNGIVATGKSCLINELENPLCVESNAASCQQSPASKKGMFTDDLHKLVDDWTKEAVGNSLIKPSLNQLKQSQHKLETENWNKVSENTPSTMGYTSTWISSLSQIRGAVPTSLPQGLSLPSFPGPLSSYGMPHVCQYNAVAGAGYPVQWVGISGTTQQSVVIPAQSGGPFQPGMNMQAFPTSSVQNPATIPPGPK
Protocol: as §1
Where [9] appears, read: 1 h, 1 μM WEL028, 1 h preincubation.
Setting [10] is: 1 µM, LanthaScreen Binding, listed as WEL028, 1 µM.

Results on one compound are retold here after article PMC7316778 (Nature Communications, 2020).

Values joined by “and” are separate entries in the source; they are usually repeats but may differ in a detail not shown here. Identical values can stand only once. Like-named read-outs stand apart in the source and are kept apart here.

In general, inhibition refers to the relative decrease from the control value, in per cent. The Inhibition is the change of the read-out against control, counted positive when it falls.

Sequence of MYLK2 (skMLCK) (Q9H1R3 whole entry): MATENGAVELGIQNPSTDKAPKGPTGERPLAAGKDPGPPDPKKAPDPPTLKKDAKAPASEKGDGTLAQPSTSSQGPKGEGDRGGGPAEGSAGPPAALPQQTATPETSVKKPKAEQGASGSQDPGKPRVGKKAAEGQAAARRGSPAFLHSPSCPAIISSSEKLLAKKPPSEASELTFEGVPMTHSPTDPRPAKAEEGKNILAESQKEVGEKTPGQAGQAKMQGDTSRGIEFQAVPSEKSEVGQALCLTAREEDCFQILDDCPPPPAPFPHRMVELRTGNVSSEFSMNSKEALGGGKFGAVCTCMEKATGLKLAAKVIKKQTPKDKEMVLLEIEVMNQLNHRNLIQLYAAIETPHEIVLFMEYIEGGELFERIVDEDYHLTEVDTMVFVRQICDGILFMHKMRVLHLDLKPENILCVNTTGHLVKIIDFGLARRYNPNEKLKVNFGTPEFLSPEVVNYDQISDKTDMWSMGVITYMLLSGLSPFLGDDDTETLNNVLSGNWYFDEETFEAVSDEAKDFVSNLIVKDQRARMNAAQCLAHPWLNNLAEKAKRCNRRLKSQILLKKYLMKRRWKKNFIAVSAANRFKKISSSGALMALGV

`C#CCOc1ccc(Nc2ncc(Cl)c(Nc3ccccc3NC(=O)C=C)n2)c(OC)c1` [Compound 6]: the inhibition at 1 µM is 8% in assay [1] (setting [9]); 7% in assay [1] (read-out: Inhibition at 1 µM (%), CDKL5, 1 µM, ZLYTE, ATP Km app); 8% in assay [2] (setting [9]); 6% in assay [2] (read-out: Inhibition at 1 µM (%), MARK2, 1 µM, ZLYTE, ATP Km app); -3% in assay [3] (setting [9]); -4% in assay [4] (setting [9]). The inhibition at 1 µM is -3% in assay [5] (setting [9]); 7% in assay [6] (setting [9]); 6% in assay [6] (read-out: Inhibition at 1 µM (%), 1 µM, ZLYTE, ATP Km app); 3% in assay [7] (setting [9]); 2% in assay [7] (read-out: Inhibition at 1 µM (%), 1 µM, LanthaScreen Binding); 3% in assay [8] (setting [9]). The “Inhibition at 1 µM (%)” value in assay [1] (CDKL5, 1 µM, ZLYTE, ATP Km app, listed as WEL028, 1 µM) is 9%; in assay [2] (MARK2, 1 µM, ZLYTE, ATP Km app, listed as WEL028, 1 µM), 9%; in assay [3] it was 2%; in assay [3] (listed as WEL028, 1 µM), -8%; in assay [4] (PIM2, 1 µM, ZLYTE, ATP Km app) it was -3%; in assay [5] (PIP5K1A, 1 µM, Adapta, ATP 10, listed as WEL028, 1 µM), 1% and -7%. Moreover, the “Inhibition at 1 µM (%)” value is 4% in assay [7] (setting [10]); 5% and 1% in assay [8] (setting [10]).
